Tests used:
[1] = test system: Human immunodeficiency virus 1; assay: Antiviral activity against HIV-1; type: functional, organism-based
P815 = assay: Cytotoxicity against mouse P815 cells assessed as reduction in cell viability after 48 hrs by MTT assay; type: functional, cell-based; details: P815, 48 h
Ehrlich = assay: Cytotoxicity against mouse Ehrlich carcinoma cells assessed as reduction in cell viability after 48 hrs by MTT assay; type: functional, cell-based
Leishmania infantum = assay: Antileishmanial activity against Leishmania infantum promastigotes after 2 to 24 hrs by Giemsa staining-based microscopic analysis; type: functional, organism-based
DU-145 = assay: Cytotoxicity against human DU145 cells assessed as reduction in cell viability after 72 hrs by MTT assay; type: functional, cell-based; details: DU-145, 72 h
L132 = assay: Cytotoxicity against human L-132 cells assessed as reduction in cell viability after 72 hrs by MTT assay; type: functional, cell-based; details: L132, 72 h
PA-1 = assay: Cytotoxicity against human PA1 cells assessed as reduction in cell viability after 72 hrs by MTT assay; type: functional, cell-based; details: PA-1, 72 h
HT-29 = assay: Cytotoxicity against human HT-29 cells assessed as reduction in cell viability after 72 hrs by MTT assay; type: functional, cell-based; details: HT-29, 72 h
[2] = test system: Human immunodeficiency virus 1; assay: Antiviral activity against HIV-1 3B; type: functional, organism-based; details: Human immunodeficiency virus 1, 3B
CCRF-CEM = assay: Cytotoxicity against human CCRF-CEM cells assessed as reduction in cell viability; type: functional, cell-based
A549 = assay: Antitumor activity against human A549 cells by SRB assay; type: functional, cell-based
A2780 = assay: Antitumor activity against human A2780 cells by SRB assay; type: functional, cell-based
8505C = assay: Antitumor activity against human 8505C cells by SRB assay; type: functional, cell-based
518A2 = assay: Antitumor activity against human 518A2 cells by SRB assay; type: functional, cell-based
MCF7 = assay: Antitumor activity against human MCF7 cells by SRB assay; type: functional, cell-based
[3] = test system: Human immunodeficiency virus 1; assay: Antiviral activity against HIV-1 NL4-3 infected in human MT-4 cells; type: functional, organism-based; details: Human immunodeficiency virus 1, NL4-3, MT4
Plasmodium falciparum = assay: Antimalarial activity against chloroquine-sensitive Plasmodium falciparum 3D7 by flow cytometry analysis; type: functional, organism-based
HEK-293T = assay: Cytotoxicity against HEK293T cells assessed as reduction in cell viability; type: cell-based; details: Homo sapiens
[4] = Selectivity index, ratio of IC50 for HEK293T cells tobIC50 for chloroquine-sensitive Plasmodium falciparum 3D7; type: toxicity; details: human, read-out: Ratio IC50

Question: For `C=C(C)[C@@H]1CC[C@]2(C(=O)OCCCCCCCC(=O)N[C@@H](CC(C)C)[C@@H](O)CC(=O)O)CC[C@]3(C)[C@H](CC[C@@H]4[C@@]5(C)CC[C@H](O)C(C)(C)[C@@H]5CC[C@]43C)[C@@H]12`, which IC50 [1] is on record?
Answer: 50 nM

Question: Which IC50 (P815) does the source give for `COC(=O)[C@]12CC[C@@H](C(C)C)[C@@H]1[C@H]1CC[C@@H]3[C@@]4(C)CC(CCC[P+](c5ccccc5)(c5ccccc5)c5ccccc5)[C@H](OC(C)=O)C(C)(C)[C@@H]4CC[C@@]3(C)[C@]1(C)CC2` (some centres undefined) here?
Answer: 1.1 to 4.7 µM

Question: And the IC50 (Ehrlich)?
Answer: 1.1 to 4.7 µM

Question: Which IC50 (Leishmania infantum) does the source give for `C=C(C)[C@@H]1CC[C@]2(C(=O)n3ccnc3)CC[C@]3(C)[C@H](CC[C@@H]4[C@@]5(C)C=C(OC(=O)n6ccnc6)C(=O)C(C)(C)[C@@H]5CC[C@]43C)[C@@H]12` here?
Answer: 26 µM

Question: With `C=C(C)[C@@H]1CC[C@]2(C(=O)O)CC[C@]3(C)[C@H](CC[C@@H]4[C@@]5(C)CC/C(=N\NC(C)=O)C(C)(C)[C@@H]5CC[C@]43C)[C@@H]12` as the molecule, how does the IC50 (DU-145) read?
Answer: 1000 to 4000 nM

Question: And the IC50 (L132)?
Answer: 1000 to 4000 nM

Question: And the IC50 (PA-1)?
Answer: 1000 to 4000 nM

Question: What about the IC50 (HT-29) of the same molecule?
Answer: 1000 to 4000 nM

Question: Which EC50 [2] does the source give for `CC1(C)CC[C@]2(C(=O)O)CC[C@]3(C)C(=CC[C@@H]4[C@@]5(C)CC[C@H](O)C(C)(C)[C@@H]5CC[C@]43C)[C@@H]2C1` [OLEANOLIC_ACID] here?
Answer: 10 to 330 nM

Question: Which IC50 (CCRF-CEM) does the source give for `C=C(C)[C@@H]1CC[C@]2(C(=O)NCCN)CC[C@]3(C)[C@H](CC[C@@H]4[C@@]5(C)CC[C@H](O)C(C)(C)[C@@H]5CC[C@]43C)[C@@H]12` here?
Answer: 0.7 µM

Question: For `COC(=O)[C@]12CC[C@@H](C(C)C)[C@@H]1[C@H]1CC[C@@H]3[C@@]4(C)CC(CCC[P+](c5ccccc5)(c5ccccc5)c5ccccc5)[C@@H](OC(C)=O)C(C)(C)[C@@H]4CC[C@@]3(C)[C@]1(C)CC2` (some centres undefined), which IC50 (P815) is on record?
Answer: 1.1 to 4.7 µM

Question: And the IC50 (Ehrlich)?
Answer: 1.1 to 4.7 µM

Question: Which results are given for `C=C(C)[C@@H]1CC[C@]2(C(=O)O)CC[C@]3(C)[C@H](CC[C@@H]4[C@@]5(C)CC/C(=N\Nc6ccc(F)cc6)C(C)(C)[C@@H]5CC[C@]43C)[C@@H]12`?
Answer: IC50 (DU-145): 1000 to 4000 nM; IC50 (L132): 1000 to 4000 nM; IC50 (PA-1): 1000 to 4000 nM; IC50 (HT-29): 1000 to 4000 nM

Question: Which IC50 [1] does the source give for `C=C(CO)[C@@H]1CC[C@]2(C(=O)OCCCCCCCCCCC(=O)O)CC[C@]3(C)[C@H](CC[C@@H]4[C@@]5(C)CC[C@H](O)C(C)(C)[C@@H]5CC[C@]43C)[C@@H]12` here?
Answer: 50 nM

Question: Which IC50 (P815) does the source give for `CC(=O)O[C@H]1C(CCC[P+](c2ccccc2)(c2ccccc2)c2ccccc2)C[C@]2(C)[C@H]3CC[C@@H]4[C@H]5[C@H](C(C)C)CC[C@]5(C(=O)O)CC[C@@]4(C)[C@]3(C)CC[C@H]2C1(C)C` (some centres undefined) here?
Answer: 1.1 to 4.7 µM

Question: What about the IC50 (Ehrlich) of the same molecule?
Answer: 1.1 to 4.7 µM

Question: Which IC50 (P815) does the source give for `C=C(C)[C@@H]1CC[C@]2(C(=O)O)CC[C@]3(C)[C@H](CC[C@@H]4[C@@]5(C)CC[C@H](O)C(C)(C)[C@@H]5CC[C@]43C)[C@@H]12` [BETULINIC ACID] here?
Answer: 41 µM

Question: And the IC50 (Ehrlich)?
Answer: 54 µM

Question: What about the IC50 (A549) of the same molecule?
Answer: 330 to 1340 nM

Question: What about the IC50 (A2780) of the same molecule?
Answer: 330 to 1340 nM

Question: What about the IC50 (8505C) of the same molecule?
Answer: 330 to 1340 nM

Question: What about the IC50 (518A2) of the same molecule?
Answer: 330 to 1340 nM

Question: And the IC50 (MCF7)?
Answer: 330 to 1340 nM

Question: Which IC50 (Leishmania infantum) does the source give for `C=C(CC=O)[C@@H]1CC[C@]2(COC(=O)n3ccnc3)CC[C@]3(C)[C@H](CC[C@@H]4[C@@]5(C)CC[C@H](O)C(C)(C)[C@@H]5CC[C@]43C)[C@@H]12` here?
Answer: 51 µM

Question: With `C=C(/C=N/N=C/c1ccccn1)[C@@H]1CC[C@]2(C(=O)O)CC[C@]3(C)[C@H](CC[C@@H]4[C@@]5(C)CC[C@H](O)C(C)(C)[C@@H]5CC[C@]43C)[C@@H]12` as the molecule, how does the IC50 (CCRF-CEM) read?
Answer: 3.8 to 4.8 µM

Question: Which IC50 (DU-145) does the source give for `C=C(C)[C@@H]1CC[C@]2(C(=O)O)CC[C@]3(C)[C@H](CC[C@@H]4[C@@]5(C)CC/C(=N\Nc6ccccc6)C(C)(C)[C@@H]5CC[C@]43C)[C@@H]12` here?
Answer: 1000 to 4000 nM

Question: And the IC50 (L132)?
Answer: 1000 to 4000 nM

Question: And the IC50 (PA-1)?
Answer: 1000 to 4000 nM

Question: What about the IC50 (HT-29) of the same molecule?
Answer: 1000 to 4000 nM

Question: Which IC50 (CCRF-CEM) does the source give for `C=C(/C=N/N=C/c1ccccc1O)[C@@H]1CC[C@]2(C(=O)O)CC[C@]3(C)[C@H](CC[C@@H]4[C@@]5(C)CC[C@H](O)C(C)(C)[C@@H]5CC[C@]43C)[C@@H]12` here?
Answer: 3.8 to 4.8 µM

Question: For `Cc1cn([C@H]2C[C@H](N=[N+]=[N-])[C@@H](CO)O2)c(=O)[nH]c1=O` [ZIDOVUDINE], which EC50 [3] is on record?
Answer: 100 nM

Question: What does the source list for `C=C(C)[C@@H]1CC[C@]2(C(=O)NCCNCCN)CC[C@]3(C)[C@H](CC[C@@H]4[C@@]5(C)CC[C@H](OC(C)=O)C(C)(C)[C@@H]5CC[C@]43C)[C@@H]12`?
Answer: IC50 (A549): 1400 to 2240 nM; IC50 (A2780): 1400 to 2240 nM; IC50 (8505C): 1400 to 2240 nM; IC50 (518A2): 1400 to 2240 nM; IC50 (MCF7): 1400 to 2240 nM

Question: With `C=C(C)[C@@H]1CC[C@]2(C(=O)N3CCNCC3)CC[C@]3(C)[C@H](CC[C@@H]4[C@@]5(C)CC[C@H](O)C(C)(C)[C@@H]5CC[C@]43C)[C@@H]12` as the molecule, how does the IC50 (CCRF-CEM) read?
Answer: 0.8 µM

Question: Which IC50 (DU-145) does the source give for `C=C(C)[C@@H]1CC[C@]2(C(=O)O)CC[C@]3(C)[C@H](CC[C@@H]4[C@@]5(C)CC/C(=N\Nc6c(Cl)cc(Cl)cc6Cl)C(C)(C)[C@@H]5CC[C@]43C)[C@@H]12` here?
Answer: 1000 to 4000 nM

Question: What about the IC50 (L132) of the same molecule?
Answer: 1000 to 4000 nM

Question: And the IC50 (PA-1)?
Answer: 1000 to 4000 nM

Question: What about the IC50 (HT-29) of the same molecule?
Answer: 1000 to 4000 nM

Question: What does the source list for `CC(=O)O[C@H]1C(CCC[P+](c2ccccc2)(c2ccccc2)c2ccccc2)C[C@]2(C)[C@H]3CC[C@@H]4[C@H]5[C@H](C(C)C)CC[C@]5(C(=O)OCc5ccccc5)CC[C@@]4(C)[C@]3(C)CC[C@H]2C1(C)C` (some centres undefined)?
Answer: IC50 (P815): 1.1 to 4.7 µM; IC50 (Ehrlich): 1.1 to 4.7 µM

Question: Which EC50 [3] does the source give for `C=C(C)[C@@H]1CC[C@]2(C(=O)OCc3cn([C@H]4C[C@H](n5cc(C)c(=O)[nH]c5=O)O[C@@H]4CO)nn3)CC[C@]3(C)[C@H](CC[C@@H]4[C@@]5(C)CC[C@H](OC(=O)CC(C)(C)C(=O)O)C(C)(C)[C@@H]5CC[C@]43C)[C@@H]12` here?
Answer: 100 nM

Question: Which IC50 (Plasmodium falciparum) does the source give for `C=C(C)[C@@H]1CC[C@]2(C(=O)NCCCN3CCN(CCCN)CC3)CC[C@]3(C)[C@H](CC[C@@H]4[C@@]5(C)CC[C@H](OC(C)=O)C(C)(C)[C@@H]5CC[C@]43C)[C@@H]12` here?
Answer: 220 nM

Question: What about the IC50 (HEK-293T) of the same molecule?
Answer: 4 µM

Question: What about the selectivity ratio [4] of the same molecule?
Answer: 23

Question: For `C[C@H]1[C@H](C)CC[C@]2(C(=O)O)CC[C@]3(C)C(=CC[C@@H]4[C@@]5(C)CC[C@H](O)C(C)(C)[C@@H]5CC[C@]43C)[C@H]12` [URSOLIC ACID], which EC50 [2] is on record?
Answer: 10 to 330 nM

Question: For `C=C(/C=N/N=C/c1ccccc1[N+](=O)[O-])[C@@H]1CC[C@]2(C(=O)O)CC[C@]3(C)[C@H](CC[C@@H]4[C@@]5(C)CC[C@H](O)C(C)(C)[C@@H]5CC[C@]43C)[C@@H]12`, which IC50 (CCRF-CEM) is on record?
Answer: 3.8 to 4.8 µM

Question: Which EC50 [2] does the source give for `CCCCCCCCCCCCCCCCOP(=O)([O-])OCC[N+](C)(C)C` [MILTEFOSINE] here?
Answer: 10 to 330 nM

Question: What about the IC50 (Leishmania infantum) of the same molecule?
Answer: 6 µM

Source: ChEMBL document CHEMBL4414578, “Design and synthesis of pentacyclic triterpene conjugates and their use in medicinal research” (Eur J Med Chem, 2019)
